Assay results reported in patent US8158636B2, “Compounds and methods for kinase modulation, and indications therefor” (Plexxikon Inc., priority 2008, dated 2012).

Tests used:
Assay type in all cases: biochemical
[1] = target: TrkA (Homo sapiens, UniProt P04629); assay: Kinase activity assay, TrkA; conditions: Table 1m; read-out: activity toward kinase TrkA, IC50
Source text: (§1) Assays for the activity of kinases, including, but not limited to, Fms, Kit, B-Raf, B-Raf V600E, c-Raf-1, and TrkA are known in the art, for example as described in US Patent Publication Number US20070032519 and U.S. patent application Ser. No. 11/473,347 (see also, PCT publication WO2007002433), the disclosures of which are hereby incorporated by reference with respect to such assays.

[2] = target: Kdr (Homo sapiens, UniProt P35968); assay: Kinase activity assay, Kdr; conditions: Table 1i; read-out: activity toward kinase Kdr, IC50
Source text: as §1

[3] = target: Kit (Homo sapiens, UniProt P10721); assay: Kinase activity assay, Kit; conditions: Table 1j; read-out: activity toward kinase Kit, IC50
Source text: as §1

[4] = target: B-Raf V600E (Homo sapiens, UniProt P15056, V600E); assay: Kinase activity assay, B-Raf V600E; conditions: Table 1c; read-out: activity toward kinase B-Raf V600E, IC50
Source text: as §1

[5] = target: T1, A-Raf (Homo sapiens, UniProt P10398); assay: Kinase activity assay, A-Raf; conditions: Table 1a; read-out: activity toward kinase A-Raf, IC50
T1 sequence (P10398 1-606): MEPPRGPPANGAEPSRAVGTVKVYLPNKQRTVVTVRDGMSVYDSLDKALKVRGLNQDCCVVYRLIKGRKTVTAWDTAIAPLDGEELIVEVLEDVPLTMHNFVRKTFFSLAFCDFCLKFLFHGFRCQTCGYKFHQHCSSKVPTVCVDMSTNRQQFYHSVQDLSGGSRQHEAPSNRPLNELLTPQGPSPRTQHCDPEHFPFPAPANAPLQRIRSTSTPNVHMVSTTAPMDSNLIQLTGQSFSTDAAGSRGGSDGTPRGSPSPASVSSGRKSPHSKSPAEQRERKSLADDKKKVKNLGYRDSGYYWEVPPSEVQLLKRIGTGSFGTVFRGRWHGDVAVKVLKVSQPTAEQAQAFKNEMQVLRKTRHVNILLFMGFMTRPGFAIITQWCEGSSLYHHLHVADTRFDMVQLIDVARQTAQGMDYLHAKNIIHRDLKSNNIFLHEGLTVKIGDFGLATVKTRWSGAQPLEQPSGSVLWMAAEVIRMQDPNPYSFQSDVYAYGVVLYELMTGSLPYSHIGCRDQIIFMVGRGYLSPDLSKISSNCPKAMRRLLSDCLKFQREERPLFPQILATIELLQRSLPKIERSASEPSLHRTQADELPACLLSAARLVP
Source text: as §1

[6] = target: Fms (Homo sapiens, UniProt P07333); assay: Kinase activity assay, Fms; conditions: Table 1h; read-out: activity toward kinase Fms, IC50
Source text: as §1

[7] = target: T2, Flt-3 (Homo sapiens, UniProt P36888); assay: Kinase activity assay, Flt-3; conditions: Table 1g; read-out: activity toward kinase Flt-3, IC50
T2 sequence (P36888 27-993): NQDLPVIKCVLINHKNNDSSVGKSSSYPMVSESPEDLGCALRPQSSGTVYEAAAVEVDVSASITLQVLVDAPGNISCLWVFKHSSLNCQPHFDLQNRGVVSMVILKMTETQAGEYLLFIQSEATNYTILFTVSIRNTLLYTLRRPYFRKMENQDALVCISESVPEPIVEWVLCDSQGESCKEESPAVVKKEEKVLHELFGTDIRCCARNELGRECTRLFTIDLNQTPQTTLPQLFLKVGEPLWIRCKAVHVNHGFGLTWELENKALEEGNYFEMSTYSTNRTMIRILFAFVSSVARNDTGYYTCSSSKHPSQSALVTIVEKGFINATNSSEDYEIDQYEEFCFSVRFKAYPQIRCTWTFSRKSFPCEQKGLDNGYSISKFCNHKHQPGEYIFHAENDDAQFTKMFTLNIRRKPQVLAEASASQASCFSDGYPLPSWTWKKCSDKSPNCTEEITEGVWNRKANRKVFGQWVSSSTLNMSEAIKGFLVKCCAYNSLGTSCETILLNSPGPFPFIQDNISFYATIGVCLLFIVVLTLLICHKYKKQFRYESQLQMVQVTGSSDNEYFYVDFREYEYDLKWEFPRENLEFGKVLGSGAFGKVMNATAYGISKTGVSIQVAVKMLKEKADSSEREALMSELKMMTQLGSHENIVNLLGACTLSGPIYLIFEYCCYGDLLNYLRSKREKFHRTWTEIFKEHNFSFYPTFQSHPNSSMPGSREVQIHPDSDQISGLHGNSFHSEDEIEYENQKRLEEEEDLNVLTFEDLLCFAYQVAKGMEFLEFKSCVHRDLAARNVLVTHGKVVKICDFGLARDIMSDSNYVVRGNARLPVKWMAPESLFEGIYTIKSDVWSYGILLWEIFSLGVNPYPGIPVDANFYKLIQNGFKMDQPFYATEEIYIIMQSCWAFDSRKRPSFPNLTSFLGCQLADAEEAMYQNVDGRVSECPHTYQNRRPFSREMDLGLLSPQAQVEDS
Source text: as §1

[8] = target: Flt-1 (Homo sapiens, UniProt P17948); assay: Kinase activity assay, Flt-1; conditions: Table 1f; read-out: activity toward kinase Flt-1, IC50
Source text: as §1

[9] = target: T3, TEC (Homo sapiens, UniProt P42680); assay: Kinase activity assay, TEC; conditions: Table 1l; read-out: activity toward kinase TEC, IC50
T3 sequence (P42680 1-631): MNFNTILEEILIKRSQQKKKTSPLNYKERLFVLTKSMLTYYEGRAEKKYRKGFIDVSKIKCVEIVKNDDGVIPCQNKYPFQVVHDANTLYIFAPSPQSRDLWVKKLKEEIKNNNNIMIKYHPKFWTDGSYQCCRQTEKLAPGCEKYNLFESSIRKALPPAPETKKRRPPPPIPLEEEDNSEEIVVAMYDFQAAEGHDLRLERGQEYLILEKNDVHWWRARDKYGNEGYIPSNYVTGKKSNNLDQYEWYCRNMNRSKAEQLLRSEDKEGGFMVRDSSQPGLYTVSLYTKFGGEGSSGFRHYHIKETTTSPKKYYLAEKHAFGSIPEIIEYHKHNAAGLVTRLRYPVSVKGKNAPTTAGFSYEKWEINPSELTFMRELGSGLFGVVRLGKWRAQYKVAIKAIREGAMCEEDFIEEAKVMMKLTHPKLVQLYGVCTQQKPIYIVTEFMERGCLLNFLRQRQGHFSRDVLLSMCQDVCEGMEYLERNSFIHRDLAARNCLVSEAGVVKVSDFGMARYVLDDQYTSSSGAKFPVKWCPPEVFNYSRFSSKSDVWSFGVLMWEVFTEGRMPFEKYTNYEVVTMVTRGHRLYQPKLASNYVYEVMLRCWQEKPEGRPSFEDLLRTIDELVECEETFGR
Source text: as §1

Measured: IC50

Fms, sequence (P07333 20-972): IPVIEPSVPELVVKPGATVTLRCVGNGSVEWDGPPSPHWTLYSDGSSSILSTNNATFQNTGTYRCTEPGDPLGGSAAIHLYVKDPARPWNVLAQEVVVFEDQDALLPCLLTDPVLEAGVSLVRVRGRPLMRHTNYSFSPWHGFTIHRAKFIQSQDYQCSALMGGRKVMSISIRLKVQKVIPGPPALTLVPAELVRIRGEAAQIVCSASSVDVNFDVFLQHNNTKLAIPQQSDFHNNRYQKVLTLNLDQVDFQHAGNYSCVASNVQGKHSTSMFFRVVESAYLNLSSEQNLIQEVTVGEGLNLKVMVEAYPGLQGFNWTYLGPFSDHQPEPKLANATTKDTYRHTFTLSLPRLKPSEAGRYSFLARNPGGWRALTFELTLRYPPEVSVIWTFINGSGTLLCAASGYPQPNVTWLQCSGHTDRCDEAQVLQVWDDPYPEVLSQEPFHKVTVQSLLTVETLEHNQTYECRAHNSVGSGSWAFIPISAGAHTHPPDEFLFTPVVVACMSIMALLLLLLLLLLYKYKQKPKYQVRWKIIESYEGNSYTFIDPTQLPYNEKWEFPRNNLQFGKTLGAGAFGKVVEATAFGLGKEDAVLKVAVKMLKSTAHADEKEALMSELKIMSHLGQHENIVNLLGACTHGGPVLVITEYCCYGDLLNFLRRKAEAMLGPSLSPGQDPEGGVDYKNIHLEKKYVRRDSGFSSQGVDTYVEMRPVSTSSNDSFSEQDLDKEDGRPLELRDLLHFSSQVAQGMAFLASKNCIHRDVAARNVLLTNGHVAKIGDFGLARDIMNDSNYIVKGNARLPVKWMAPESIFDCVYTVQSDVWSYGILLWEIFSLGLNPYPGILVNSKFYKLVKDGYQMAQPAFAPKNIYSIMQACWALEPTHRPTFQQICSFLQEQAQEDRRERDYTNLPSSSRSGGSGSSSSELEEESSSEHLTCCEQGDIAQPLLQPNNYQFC
Kit, sequence (P10721 26-976): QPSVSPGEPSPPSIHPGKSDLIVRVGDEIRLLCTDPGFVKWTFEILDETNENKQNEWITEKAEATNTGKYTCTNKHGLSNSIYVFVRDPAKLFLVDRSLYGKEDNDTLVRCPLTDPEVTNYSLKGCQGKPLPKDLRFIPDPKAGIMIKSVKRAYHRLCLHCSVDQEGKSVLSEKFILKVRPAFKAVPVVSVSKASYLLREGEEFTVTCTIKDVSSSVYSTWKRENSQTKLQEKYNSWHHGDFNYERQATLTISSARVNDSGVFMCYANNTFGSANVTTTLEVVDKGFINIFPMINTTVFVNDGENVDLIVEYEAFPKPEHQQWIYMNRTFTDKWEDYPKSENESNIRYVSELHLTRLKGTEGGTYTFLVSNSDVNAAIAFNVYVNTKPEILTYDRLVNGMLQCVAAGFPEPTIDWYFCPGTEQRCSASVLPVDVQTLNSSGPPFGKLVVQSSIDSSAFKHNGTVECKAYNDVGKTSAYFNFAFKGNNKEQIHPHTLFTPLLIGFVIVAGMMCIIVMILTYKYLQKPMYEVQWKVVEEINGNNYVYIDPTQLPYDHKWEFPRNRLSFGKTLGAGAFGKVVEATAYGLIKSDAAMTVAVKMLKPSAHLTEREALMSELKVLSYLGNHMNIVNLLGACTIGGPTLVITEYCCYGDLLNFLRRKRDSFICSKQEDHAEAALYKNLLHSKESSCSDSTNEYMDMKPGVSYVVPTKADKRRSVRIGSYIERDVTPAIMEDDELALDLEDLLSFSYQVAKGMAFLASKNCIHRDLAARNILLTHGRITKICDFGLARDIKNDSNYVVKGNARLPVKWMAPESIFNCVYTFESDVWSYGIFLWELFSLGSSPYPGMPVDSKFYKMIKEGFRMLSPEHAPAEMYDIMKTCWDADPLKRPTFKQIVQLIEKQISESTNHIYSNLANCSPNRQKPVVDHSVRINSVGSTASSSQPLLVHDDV
TrkA, sequence (P04629 33-796): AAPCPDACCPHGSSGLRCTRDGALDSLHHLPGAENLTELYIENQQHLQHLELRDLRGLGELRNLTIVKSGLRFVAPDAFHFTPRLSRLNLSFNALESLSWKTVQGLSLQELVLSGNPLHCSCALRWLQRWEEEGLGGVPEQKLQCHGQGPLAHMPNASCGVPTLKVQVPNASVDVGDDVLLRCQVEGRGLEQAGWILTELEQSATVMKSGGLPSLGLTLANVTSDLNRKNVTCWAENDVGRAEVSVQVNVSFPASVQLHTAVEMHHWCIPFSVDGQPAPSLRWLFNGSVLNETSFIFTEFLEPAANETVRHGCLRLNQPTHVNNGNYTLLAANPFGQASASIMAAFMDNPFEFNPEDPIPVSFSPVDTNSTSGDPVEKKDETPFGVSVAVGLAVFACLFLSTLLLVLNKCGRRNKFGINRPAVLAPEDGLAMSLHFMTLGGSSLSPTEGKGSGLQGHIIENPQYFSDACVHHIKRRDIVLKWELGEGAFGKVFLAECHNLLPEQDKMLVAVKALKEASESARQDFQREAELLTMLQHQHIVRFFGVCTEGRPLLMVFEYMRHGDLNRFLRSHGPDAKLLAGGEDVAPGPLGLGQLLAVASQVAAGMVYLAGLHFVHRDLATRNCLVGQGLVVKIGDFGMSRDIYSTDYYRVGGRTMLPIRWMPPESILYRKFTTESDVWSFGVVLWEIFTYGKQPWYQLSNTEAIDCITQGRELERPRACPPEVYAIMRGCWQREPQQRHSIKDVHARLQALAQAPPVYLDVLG
B-Raf V600E, sequence (P15056 whole entry V600E): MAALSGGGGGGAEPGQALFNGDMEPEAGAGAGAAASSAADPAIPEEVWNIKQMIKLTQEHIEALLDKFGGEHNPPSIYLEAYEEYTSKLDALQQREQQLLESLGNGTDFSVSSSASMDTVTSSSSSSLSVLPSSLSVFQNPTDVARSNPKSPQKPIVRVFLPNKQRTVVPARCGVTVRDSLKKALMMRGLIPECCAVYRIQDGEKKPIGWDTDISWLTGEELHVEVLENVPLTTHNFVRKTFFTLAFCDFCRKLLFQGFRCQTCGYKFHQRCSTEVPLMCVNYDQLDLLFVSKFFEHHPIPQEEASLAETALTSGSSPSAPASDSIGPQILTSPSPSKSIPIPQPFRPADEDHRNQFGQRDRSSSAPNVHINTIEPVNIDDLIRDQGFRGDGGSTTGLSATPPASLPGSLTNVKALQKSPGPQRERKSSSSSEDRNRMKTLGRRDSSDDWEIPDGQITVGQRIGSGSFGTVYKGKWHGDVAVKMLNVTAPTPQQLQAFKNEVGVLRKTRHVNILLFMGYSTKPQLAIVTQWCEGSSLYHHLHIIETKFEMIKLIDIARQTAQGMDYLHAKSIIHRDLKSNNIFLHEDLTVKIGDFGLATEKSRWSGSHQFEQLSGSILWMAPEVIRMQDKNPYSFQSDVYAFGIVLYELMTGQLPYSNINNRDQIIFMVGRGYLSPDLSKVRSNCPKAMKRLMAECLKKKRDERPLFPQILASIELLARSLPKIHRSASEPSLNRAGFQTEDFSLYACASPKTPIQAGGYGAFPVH
Flt-1, sequence (P17948 27-1338): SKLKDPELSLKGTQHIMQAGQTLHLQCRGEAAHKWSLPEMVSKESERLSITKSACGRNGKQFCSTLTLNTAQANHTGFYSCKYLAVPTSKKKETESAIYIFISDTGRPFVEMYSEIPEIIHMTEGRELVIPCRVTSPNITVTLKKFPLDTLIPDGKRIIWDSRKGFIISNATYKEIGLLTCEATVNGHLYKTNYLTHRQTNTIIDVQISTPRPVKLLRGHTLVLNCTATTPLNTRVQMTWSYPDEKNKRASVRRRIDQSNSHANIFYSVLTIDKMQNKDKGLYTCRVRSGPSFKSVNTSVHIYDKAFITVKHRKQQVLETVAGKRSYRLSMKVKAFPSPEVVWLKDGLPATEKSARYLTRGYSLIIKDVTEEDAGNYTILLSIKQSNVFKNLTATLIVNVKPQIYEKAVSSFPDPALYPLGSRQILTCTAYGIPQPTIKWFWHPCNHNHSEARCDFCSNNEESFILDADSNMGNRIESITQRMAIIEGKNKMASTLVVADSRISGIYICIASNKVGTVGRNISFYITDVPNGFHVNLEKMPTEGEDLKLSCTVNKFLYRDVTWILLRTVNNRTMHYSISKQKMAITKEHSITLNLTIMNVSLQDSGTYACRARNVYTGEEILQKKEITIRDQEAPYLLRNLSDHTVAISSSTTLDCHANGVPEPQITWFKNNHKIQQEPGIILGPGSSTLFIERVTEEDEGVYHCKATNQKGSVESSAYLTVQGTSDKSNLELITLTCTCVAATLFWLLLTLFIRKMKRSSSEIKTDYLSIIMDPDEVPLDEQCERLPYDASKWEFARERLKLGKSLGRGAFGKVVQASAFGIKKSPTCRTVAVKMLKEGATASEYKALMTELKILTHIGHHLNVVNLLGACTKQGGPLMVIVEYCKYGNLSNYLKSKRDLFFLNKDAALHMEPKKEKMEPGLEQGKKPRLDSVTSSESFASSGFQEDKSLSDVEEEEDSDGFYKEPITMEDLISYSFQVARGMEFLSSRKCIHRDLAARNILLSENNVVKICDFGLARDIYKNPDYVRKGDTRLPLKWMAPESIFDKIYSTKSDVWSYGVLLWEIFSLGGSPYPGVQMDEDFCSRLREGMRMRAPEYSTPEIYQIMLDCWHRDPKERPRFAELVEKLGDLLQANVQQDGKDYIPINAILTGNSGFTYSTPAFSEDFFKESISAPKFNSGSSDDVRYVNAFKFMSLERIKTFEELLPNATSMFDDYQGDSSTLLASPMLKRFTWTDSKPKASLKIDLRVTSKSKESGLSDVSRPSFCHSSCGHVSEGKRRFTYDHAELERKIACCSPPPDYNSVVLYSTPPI

Clc1ccc(CNc2ccc(Cc3c[nH]c4ncncc34)cn2)cc1 [P-0001, (4-Chloro-benzyl)-[5-(7H-pyrrolo[2,3-d]pyrimidin-5-ylmethyl)-pyridin-2-yl]-amine]
≤ 10 µM: all assays above

Clc1ccccc1CNc1ccc(Cc2c[nH]c3ncncc23)cn1 [P-0003, (2-Chloro-benzyl)-[5-(7H-pyrrolo[2,3-d]pyrimidin-5-ylmethyl)-pyridin-2-yl]-amine]
not listed: [2]
≤ 10 µM: all other assays above
